Laboratory results: ChEMBL document CHEMBL4118074, “Design, synthesis and structure-activity relationship studies of a novel focused library of 2,3,4-substituted oxazolidines with antiproliferative activity against cancer cell lines” (Eur J Med Chem, 2017)

Tests used:
[1] = tested on: HL-60; experiment: Antiproliferative activity against human HL60 cells after 48 hrs by MTT assay; assay type: functional, cell-based; details: HL-60, 48 h
[2] = tested on: MDA-MB-231; experiment: Antiproliferative activity against human MDA-MB-231 cells after 48 hrs by MTT assay; assay type: functional, cell-based; details: MDA-MB-231, 48 h
[3] = tested on: MCF7; experiment: Antiproliferative activity against human MCF7 cells after 48 hrs by MTT assay; assay type: functional, cell-based; details: MCF7, 48 h
[4] = tested on: HCT-116; experiment: Antiproliferative activity against human HCT116 cells after 48 hrs by MTT assay; assay type: functional, cell-based; details: HCT-116, 48 h
[5] = tested on: Vero; experiment: Cytotoxicity against African green monkey Vero cells after 48 hrs by MTT assay; assay type: cell-based; details: Chlorocebus sabaeus
[6] = tested on: Jurkat; experiment: Antiproliferative activity against human Jurkat T cells after 48 hrs by MTT assay; assay type: functional, cell-based

| IC50 [1] [µM] | IC50 [2] [µM] | IC50 [3] [µM] | IC50 [4] [µM] | IC50 [6] [µM] | SMILES | IC50 [5] [µM] |
| --- | --- | --- | --- | --- | --- | --- |
| > 50 | > 50 | > 50 | > 50 | – | CC(C)(C)OC(=O)N[C@H](CO)COc1ccc([N+](=O)[O-])cc1 | > 100 |
| > 50 | > 50 | > 50 | > 50 | > 50 | CC(C)(C)C(=O)N1[C@@H](COc2ccc([N+](=O)[O-])cc2)COC1(C)C | > 100 |
| > 50 | > 50 | > 50 | > 50 | > 50 | CC(C)(C)CC(=O)N1[C@@H](COc2ccc([N+](=O)[O-])cc2)COC1(C)C | > 100 |
| > 50 | > 50 | > 50 | > 50 | > 50 | CN1CCN(C(=O)c2ccc(OC[C@H]3COC(C)(C)N3C(=O)OC(C)(C)C)cc2)CC1 | – |
